Test results: patent US8987207B2, “Peptides which have analgesic effects and which inhibit ASIC channels” (Centre National de la Recherche Scientifique—CNRS, priority 2010, dated 2015)
Bridges are numbered along the chain shown (N, C = ends). Where no end group is shown, it is not given here.

How the values were obtained:
[1] = biological target: T1, rat heteromeric ASIC1a+ASIC3 channels (Rattus norvegicus, UniProt O35240+P55926); conditions: read-out: concentration inhibiting 50% of the current produced by rat heteromeric ASIC1a+ASIC3 channels; cited from earlier work
T1 sequence (P55926 1-526): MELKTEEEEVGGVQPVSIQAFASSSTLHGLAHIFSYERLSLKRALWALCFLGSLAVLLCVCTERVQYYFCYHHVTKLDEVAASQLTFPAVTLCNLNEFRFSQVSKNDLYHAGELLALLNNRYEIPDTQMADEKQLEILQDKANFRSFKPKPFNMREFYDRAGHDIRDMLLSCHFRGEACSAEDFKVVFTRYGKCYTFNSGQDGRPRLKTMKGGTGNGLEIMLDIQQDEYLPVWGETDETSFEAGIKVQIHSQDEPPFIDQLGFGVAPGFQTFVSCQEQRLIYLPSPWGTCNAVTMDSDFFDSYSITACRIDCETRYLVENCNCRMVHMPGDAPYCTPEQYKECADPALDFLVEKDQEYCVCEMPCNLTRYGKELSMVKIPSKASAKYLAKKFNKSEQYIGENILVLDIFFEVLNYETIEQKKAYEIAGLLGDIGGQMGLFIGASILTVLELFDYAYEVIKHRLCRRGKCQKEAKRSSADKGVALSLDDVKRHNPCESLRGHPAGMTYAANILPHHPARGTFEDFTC
T1 sequence (O35240 1-533): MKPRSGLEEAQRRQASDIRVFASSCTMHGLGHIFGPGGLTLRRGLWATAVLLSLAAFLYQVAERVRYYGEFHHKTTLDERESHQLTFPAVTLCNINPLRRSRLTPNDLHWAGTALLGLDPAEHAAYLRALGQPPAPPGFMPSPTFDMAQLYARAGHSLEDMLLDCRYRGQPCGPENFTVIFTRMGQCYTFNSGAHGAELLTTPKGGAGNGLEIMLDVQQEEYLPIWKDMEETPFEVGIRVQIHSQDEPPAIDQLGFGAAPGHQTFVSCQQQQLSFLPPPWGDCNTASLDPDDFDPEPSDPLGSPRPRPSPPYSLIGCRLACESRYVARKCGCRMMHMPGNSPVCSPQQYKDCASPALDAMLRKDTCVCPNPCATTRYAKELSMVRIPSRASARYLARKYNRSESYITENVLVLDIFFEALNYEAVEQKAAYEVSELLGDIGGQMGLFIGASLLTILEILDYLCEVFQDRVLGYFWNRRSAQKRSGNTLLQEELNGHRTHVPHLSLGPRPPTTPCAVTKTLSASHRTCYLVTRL

[2] = rats, cited from earlier work
[3] = Toxicity after intrathecal injection; type: in vivo; conditions: mice
[4] = Toxicity after intracerebroventricular injection; type: in vivo; conditions: mice, ICV injection, even after 3 days
Experimental: The intracerebroventricular (ICV) injection of the ASICalgin-1 peptide was carried out in the third ventricle of the brain of mice (C57B16J, 7- to 11-week-old males) anesthetized with isoflurane (1.5%) using the following stereotaxic coordinates: −2.4 mm under the cortical surface, −0.5 mm in the anterior-posterior axis and +1.6 mm in the mediolateral axis relative to the bregma. The effects of an ICV injection of 5 μl of solution containing […] of ASICalgin-1 (0.34 nmol) were compared with the effects of 5 μl of saline solution vehicle (145 mM NaCl, 5 mM KCl, 2 mM CaCl2, 10 mM HEPES, pH 7.4, 0.05% bovine serum albumin) naxolone, an inhibitor of opioid receptors (especially μ-type), was injected subcutaneously at 2 mg/kg in 50 μl of 0.9% NaCl, ten minutes before the ICV injection of the ASICalgin-1 peptide.

[5] = Accelerating rotarod test (motor activity) after intrathecal injection; type: in vivo; conditions: mice, IT injection, compared with vehicle, ANOVA
Experimental: The effects of the ASICalgin-1 peptide on motor activity were evaluated by means of the accelerating rotarod test. The mice were placed on an axle rotating at four rotations per minute (rpm) which undergoes a constant acceleration of 5 rpm per minute up to 40 rpm. The latency to fall is measured, with a maximum limit of 300 s.

[6] = mice, central injection; cited from earlier work
[7] = biological target: T2, homomeric ASIC1a channels (Homo sapiens, UniProt P78348); conditions: read-out: concentration inhibiting 50% of the current produced by homomeric ASIC1a channels; cited from earlier work
T2 sequence (P78348 1-528): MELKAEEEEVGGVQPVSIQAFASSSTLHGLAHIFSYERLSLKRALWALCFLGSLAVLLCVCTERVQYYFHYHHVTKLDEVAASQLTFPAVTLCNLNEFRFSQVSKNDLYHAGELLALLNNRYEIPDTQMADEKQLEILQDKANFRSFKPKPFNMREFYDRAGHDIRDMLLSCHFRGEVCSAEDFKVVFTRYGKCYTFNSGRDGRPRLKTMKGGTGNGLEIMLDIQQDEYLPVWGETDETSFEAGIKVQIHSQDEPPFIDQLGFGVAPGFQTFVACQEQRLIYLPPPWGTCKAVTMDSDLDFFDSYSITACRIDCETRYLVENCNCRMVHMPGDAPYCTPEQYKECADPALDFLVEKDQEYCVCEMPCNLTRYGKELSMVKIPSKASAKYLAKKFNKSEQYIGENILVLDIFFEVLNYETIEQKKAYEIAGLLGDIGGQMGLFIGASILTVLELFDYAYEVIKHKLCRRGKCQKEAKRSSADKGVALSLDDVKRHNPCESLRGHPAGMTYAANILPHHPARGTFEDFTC

Substance: APETx2
- IC50 [1]: 2000 nM
- analgesic effect on post-operative pain ([2]; intra-operative application): induces an analgesic effect
- analgesic effect on inflammatory and acidic pain ([2]; peripheral (subcutaneous) injection): induces an analgesic effect

Substance: LKCFQHGKVVTCHRDMKFCYHNTGMPFRNLKLILQGCSSSCSETENNKCCSTDRCNK (disulfide 3-19, 12-37, 41-49, 50-55) [ASICalgin-2]
- toxicity: behavior (motor, balance, apathy, paralysis, convulsion), deaths [3]: induces no modification of behavior

Substance: LKCYQHGKVVTCHRDMKFCYHNTGMPFRNLKLILQGCSSSCSETENNKCCSTDRCNK (disulfide 3-19, 12-37, 41-49, 50-55) [ASICalgin-1]
- toxicity: behavior (motor, balance, apathy, paralysis, convulsion), deaths [3]: induces no modification of behavior
- toxicity: behavior (motor, balance, apathy, paralysis, convulsion), deaths [4]: induces no modification of behavior
- effect on motor activity, latency to fall [5]: does not induce any significant effect

Substance: PcTx1
- analgesic effect [6]: powerful analgesic effect
- IC50 [7]: 1 nM
